In brackets after ≈: the same amount, converted by molar mass.
Legend:
[1] = test system: Enterococcus spp.; experiment: minimum inhibitory concentration (MIC)
Method: (§1)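 Broth microdilution MIC (Sensititre BOPO7F bovine plate, CLSI methods) of 19 antimicrobials against field isolates of P. multocida, M. haemolytica, H. somni (deep nasopharyngeal swabs) and E. coli, Enterococcus spp. (rectal swabs) from weaned dairy heifers. Incubation 16-24 h at 35 C. MIC is the lowest concentration preventing visible growth. Values with <= or > lie at the tested range limits. Trimethoprim-sulfamethoxazole is given as the trimethoprim component of a 1:19 mixture.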

[2] = test system: Mannheimia haemolytica; experiment: minimum inhibitory concentration (MIC)
Method: as §1

CCCNC[C@]1(O)[C@H](C)O[C@@H](O[C@H]2[C@H](C)[C@@H](O[C@@H]3O[C@H](C)C[C@H](N(C)C)[C@H]3O)[C@](C)(O)C[C@@H](C)CN[C@H](C)[C@@H](O)[C@](C)(O)[C@@H](CC)OC(=O)[C@@H]2C)C[C@@]1(C)OC [Tulathromycin]
minimum inhibitory concentration [µg/mL]
Conditions	[1]	[2]
isolate (source animal id): 2	≤ 8	–
isolate (source animal id): 8	–	≤ 8
isolate (source animal id): 13	–	≤ 8
isolate (source animal id): 18	–	≤ 8
isolate (source animal id): 21	–	≤ 8
isolate (source animal id): 25	–	16 (≈ 19.8 µM)
isolate (source animal id): 27	–	16 (≈ 19.8 µM)
isolate (source animal id): 28	–	≤ 8
isolate (source animal id): 30	–	≤ 8
isolate (source animal id): 31	–	16 (≈ 19.8 µM)
isolate (source animal id): 32	–	≤ 8
isolate (source animal id): 34	–	≤ 8
isolate (source animal id): 35	> 64	–
isolate (source animal id): 36	–	16 (≈ 19.8 µM)
isolate (source animal id): 37	–	16 (≈ 19.8 µM)
isolate (source animal id): 40	–	≤ 8
isolate (source animal id): 41	–	≤ 8
isolate (source animal id): 42	≤ 8	–
isolate (source animal id): 43	–	≤ 8
isolate (source animal id): 44	≤ 8	–
isolate (source animal id): 46	–	16 (≈ 19.8 µM)
isolate (source animal id): 49	–	16 (≈ 19.8 µM)
isolate (source animal id): 50	–	16 (≈ 19.8 µM)
isolate (source animal id): 51	–	≤ 8
isolate (source animal id): 52	–	≤ 8
isolate (source animal id): 53	–	≤ 8
isolate (source animal id): 55	–	≤ 8
isolate (source animal id): 56	–	≤ 8
isolate (source animal id): 57	–	> 64
isolate (source animal id): 79	≤ 8	–
isolate (source animal id): 88	≤ 8	–
isolate (source animal id): 91	≤ 8	–
isolate (source animal id): 92	16 (≈ 19.8 µM)	–
isolate (source animal id): 100	–	16 (≈ 19.8 µM)
isolate (source animal id): 103	–	16 (≈ 19.8 µM)
isolate (source animal id): 107	–	16 (≈ 19.8 µM)
isolate (source animal id): 108	–	16 (≈ 19.8 µM)
isolate (source animal id): 111	≤ 8	–
isolate (source animal id): 112	–	> 64
isolate (source animal id): 113	–	> 64
isolate (source animal id): 121	–	16 (≈ 19.8 µM)
isolate (source animal id): 122	> 64	16 (≈ 19.8 µM)
isolate (source animal id): 123	≤ 8	> 64
isolate (source animal id): 126	–	64 (≈ 79.4 µM)
isolate (source animal id): 133	≤ 8	> 64
isolate (source animal id): 135	–	> 64
isolate (source animal id): 138	–	64 (≈ 79.4 µM)
isolate (source animal id): 141	–	> 64
isolate (source animal id): 142	–	64 (≈ 79.4 µM)
isolate (source animal id): 145	–	16 (≈ 19.8 µM)
isolate (source animal id): 149	–	≤ 8
isolate (source animal id): 151	–	≤ 8
isolate (source animal id): 152	–	16 (≈ 19.8 µM)
isolate (source animal id): 154	–	≤ 8
isolate (source animal id): 158	> 64	–
isolate (source animal id): 159	–	> 64
isolate (source animal id): 162	–	64 (≈ 79.4 µM)
isolate (source animal id): 168	≤ 8	–
isolate (source animal id): 169	≤ 8	–
isolate (source animal id): 170	–	≤ 8
isolate (source animal id): 171	≤ 8	≤ 8
isolate (source animal id): 172	–	≤ 8
isolate (source animal id): 173	–	≤ 8
isolate (source animal id): 175	> 64	–
isolate (source animal id): 177	≤ 8	–
isolate (source animal id): 179	–	≤ 8
isolate (source animal id): 180	–	≤ 8
isolate (source animal id): 181	≤ 8	–
isolate (source animal id): 182	≤ 8	–
isolate (source animal id): 183	≤ 8	≤ 8
isolate (source animal id): 186	–	≤ 8
isolate (source animal id): 187	≤ 8	≤ 8
isolate (source animal id): 188	–	≤ 8
isolate (source animal id): 190	≤ 8	≤ 8
isolate (source animal id): 191	–	≤ 8
isolate (source animal id): 192	–	≤ 8
isolate (source animal id): 194	≤ 8	–
isolate (source animal id): 195	≤ 8	–
isolate (source animal id): 197	≤ 8	–
isolate (source animal id): 201	–	≤ 8
isolate (source animal id): 202	–	≤ 8
isolate (source animal id): 209	–	≤ 8
isolate (source animal id): 211	≤ 8	≤ 8
isolate (source animal id): 214	16 (≈ 19.8 µM)	–
isolate (source animal id): 220	–	≤ 8
isolate (source animal id): 221	–	≤ 8
isolate (source animal id): 222	≤ 8	–
isolate (source animal id): 223	≤ 8	≤ 8
isolate (source animal id): 228	> 64	–
isolate (source animal id): 230	> 64	–
isolate (source animal id): 233	–	16 (≈ 19.8 µM)
isolate (source animal id): 235	> 64	–
isolate (source animal id): 236	≤ 8	–
isolate (source animal id): 237	–	32 (≈ 39.7 µM)
isolate (source animal id): 239	≤ 8	–
isolate (source animal id): 241	> 64	16 (≈ 19.8 µM)
isolate (source animal id): 244	≤ 8	–
isolate (source animal id): 246	≤ 8	–
isolate (source animal id): 247	> 64	–
isolate (source animal id): 250	≤ 8	–
isolate (source animal id): 252	> 64	16 (≈ 19.8 µM)
isolate (source animal id): 253	–	16 (≈ 19.8 µM)
isolate (source animal id): 259	–	> 64
isolate (source animal id): 260	–	16 (≈ 19.8 µM)
isolate (source animal id): 262	–	16 (≈ 19.8 µM)
isolate (source animal id): 268	> 64	–
isolate (source animal id): 282	≤ 8	> 64
isolate (source animal id): 285	> 64	–
isolate (source animal id): 287	–	16 (≈ 19.8 µM)
isolate (source animal id): 288	–	≤ 8
isolate (source animal id): 289	≤ 8	–
isolate (source animal id): 290	≤ 8	–
isolate (source animal id): 291	–	≤ 8
isolate (source animal id): 293	–	16 (≈ 19.8 µM)
isolate (source animal id): 296	≤ 8	–
isolate (source animal id): 298	≤ 8	> 64
isolate (source animal id): 299	–	> 64
isolate (source animal id): 300	–	≤ 8
isolate (source animal id): 301	≤ 8	–
isolate (source animal id): 302	–	> 64
isolate (source animal id): 304	–	> 64
isolate (source animal id): 306	–	≤ 8
isolate (source animal id): 308	–	≤ 8
isolate (source animal id): 309	–	≤ 8
isolate (source animal id): 310	> 64	–
isolate (source animal id): 313	–	32 (≈ 39.7 µM)
isolate (source animal id): 318	–	≤ 8
isolate (source animal id): 320	≤ 8	≤ 8
isolate (source animal id): 321	–	32 (≈ 39.7 µM)
isolate (source animal id): 323	–	> 64
isolate (source animal id): 324	–	16 (≈ 19.8 µM)
isolate (source animal id): 326	–	32 (≈ 39.7 µM)
isolate (source animal id): 328	–	32 (≈ 39.7 µM)
isolate (source animal id): 329	–	32 (≈ 39.7 µM)
isolate (source animal id): 331	≤ 8	–
isolate (source animal id): 333	≤ 8	32 (≈ 39.7 µM)
isolate (source animal id): 335	–	16 (≈ 19.8 µM)
isolate (source animal id): 338	–	16 (≈ 19.8 µM)
isolate (source animal id): 341	> 64	–
